Values joined by “and” are separate entries in the source; they are usually repeats but may differ in a detail not shown here. Equal entries are not always repeated.
What was measured:
pSARS-CoV-2 = type: cell-based, SARS-CoV-2
SARS 3CL protease = conditions: read-out: IC50 on SARS 3CL protease activity; cited from earlier work
SARS-CoV-2 3CL protease = SARS-CoV-2 3CL protease (Severe acute respiratory syndrome coronavirus 2, UniProt P0DTD1); assay: biochemical; conditions: for inhibition at 100 µM: read-out: inhibition rate against 3CL (%)

Compound	CC50 (293 T-ACE2 cells) [µM]	EC50 (pSARS-CoV-2) [µM]	SI (pSARS-CoV-2)	further results
2′-Oxopethyl-3β-O-[2, 4-di-O-(α-l-rhamnopyranosyl)-β-d-glucopyranosyl]-lup-20 (29)-ene-28-oic acid [BA-13]	36.2 ± 0.75	8.61 ± 0.47	4.21	
C=C(C)[C@@H]1CC[C@]2(C(=O)O)CC[C@]3(C)[C@H](CC[C@@H]4[C@@]5(C)CC[C@H](O)C(C)(C)[C@@H]5CC[C@]43C)[C@@H]12 [BA, Betulinic acid]				IC50 (SARS 3CL protease): 10 µM; inhibition rate against 3CL (%) (SARS-CoV-2 3CL protease): 51.4%; inhibition at 100 µM (SARS-CoV-2 3CL protease): 72.2%
C=C(C)[C@@H]1CC[C@]2(C(=O)OCC)CC[C@]3(C)[C@H](CC[C@@H]4[C@@]5(C)CC[C@H](O[C@@H]6O[C@H](CO)[C@@H](O[C@@H]7O[C@@H](C)[C@H](O)[C@@H](O)[C@H]7O)[C@H](O)[C@H]6O[C@@H]6O[C@@H](C)[C@H](O)[C@@H](O)[C@H]6O)C(C)(C)[C@@H]5CC[C@]43C)[C@@H]12 [BA-3, Ethyl-3β-O-[2,4-di-O-(α-l-rhamnopyranosyl)-β-d-glucopyranosyl]-lup-20 (29)-ene-28-oic acid]	36.1 ± 1.05	3.7 ± 0.72	9.76	
C=C(C)[C@@H]1CC[C@]2(C(=O)OCCCC)CC[C@]3(C)[C@H](CC[C@@H]4[C@@]5(C)CC[C@H](O[C@@H]6O[C@H](CO)[C@@H](O[C@@H]7O[C@@H](C)[C@H](O)[C@@H](O)[C@H]7O)[C@H](O)[C@H]6O[C@@H]6O[C@@H](C)[C@H](O)[C@@H](O)[C@H]6O)C(C)(C)[C@@H]5CC[C@]43C)[C@@H]12 [BA-5, n-Butyl-3β-O-[2,4-di-O-(α-l-rhamnopyranosyl)-β-d-glucopyranosyl]-lup-20 (29)-ene-28-oic acid]	76.5 ± 1.23	6.42 ± 0.2	11.91	
C=C(C)[C@@H]1CC[C@]2(C(=O)OCCCCC)CC[C@]3(C)[C@H](CC[C@@H]4[C@@]5(C)CC[C@H](O[C@@H]6O[C@H](CO)[C@@H](O[C@@H]7O[C@@H](C)[C@H](O)[C@@H](O)[C@H]7O)[C@H](O)[C@H]6O[C@@H]6O[C@@H](C)[C@H](O)[C@@H](O)[C@H]6O)C(C)(C)[C@@H]5CC[C@]43C)[C@@H]12 [BA-6, n-Pentyl-3β-O-[2,4-di-O-(α-l-rhamnopyranosyl)-β-d-glucopyranosyl]-lup-20 (29)-ene-28-oic acid]	24.4 ± 0.33	5.37 ± 0.37	4.54	fold increased toxic (293 T-ACE2 cells): 1.7 fold
C=C(C)[C@@H]1CC[C@]2(C(=O)OCCCCCC)CC[C@]3(C)[C@H](CC[C@@H]4[C@@]5(C)CC[C@H](O[C@@H]6O[C@H](CO)[C@@H](O[C@@H]7O[C@@H](C)[C@H](O)[C@@H](O)[C@H]7O)[C@H](O)[C@H]6O[C@@H]6O[C@@H](C)[C@H](O)[C@@H](O)[C@H]6O)C(C)(C)[C@@H]5CC[C@]43C)[C@@H]12 [BA-7, n-Hexyl-3β-O-[2,4-di-O-(α-l-rhamnopyranosyl)-β-d-glucopyranosyl]-lup-20 (29)-ene-28-oic acid]	16.4 ± 0.19	5.54 ± 0.81	2.96	fold increased toxic (293 T-ACE2 cells): 2.5 fold
C=C(C)[C@@H]1CC[C@]2(C(=O)OC(C)C)CC[C@]3(C)[C@H](CC[C@@H]4[C@@]5(C)CC[C@H](O[C@@H]6O[C@H](CO)[C@@H](O[C@@H]7O[C@@H](C)[C@H](O)[C@@H](O)[C@H]7O)[C@H](O)[C@H]6O[C@@H]6O[C@@H](C)[C@H](O)[C@@H](O)[C@H]6O)C(C)(C)[C@@H]5CC[C@]43C)[C@@H]12 [BA-8, Isopropyl-3β-O-[2,4-di-O-(α-l-rhamnopyranosyl)-β-d-glucopyranosyl]-lup-20 (29)-ene-28-oic acid]	47.2 ± 0.63	6.05 ± 0.38	7.81	
C=C(C)C1CCC2(C(=O)OC3CCCCC3)CCC3(C)C(CCC4C5(C)CCC(OC6OC(CO)C(OC7OC(C)C(O)C(O)C7O)C(O)C6OC6OC(C)C(O)C(O)C6O)C(C)(C)C5CCC43C)C12 (stereo not drawn) [BA-9, Cyclohexyl-3β-O-[2,4-di-O-(α-l-rhamnopyranosyl)-β-d-glucopyranosyl]-lup-20 (29)-ene-28-oic acid]		> 20		activity against pSARS-CoV-2 (pSARS-CoV-2): entirely lost
C=C(C)[C@@H]1CC[C@]2(C(=O)OCCCl)CC[C@]3(C)[C@H](CC[C@@H]4[C@@]5(C)CC[C@H](O[C@@H]6O[C@H](CO)[C@@H](O[C@@H]7O[C@@H](C)[C@H](O)[C@@H](O)[C@H]7O)[C@H](O)[C@H]6O[C@@H]6O[C@@H](C)[C@H](O)[C@@H](O)[C@H]6O)C(C)(C)[C@@H]5CC[C@]43C)[C@@H]12 [BA-10, 2′-Chloroethyl-3β-O-[2,4-di-O-(α-l-rhamnopyranosyl)-β-d-glucopyranosyl]-lup-20 (29)-ene-28-oic acid]	51.8 ± 1.35	7.67 ± 0.31	6.75	fold decreased potency (pSARS-CoV-2): 2.4 fold
C=C(C)[C@@H]1CC[C@]2(C(=O)OCCBr)CC[C@]3(C)[C@H](CC[C@@H]4[C@@]5(C)CC[C@H](O[C@@H]6O[C@H](CO)[C@@H](O[C@@H]7O[C@@H](C)[C@H](O)[C@@H](O)[C@H]7O)[C@H](O)[C@H]6O[C@@H]6O[C@@H](C)[C@H](O)[C@@H](O)[C@H]6O)C(C)(C)[C@@H]5CC[C@]43C)[C@@H]12 [BA-11, 2′-Bromoethyl 3β-O-[2,4-di-O-(α-l-rhamnopyranosyl)-β-d-glucopyranosyl]-lup-20 (29)-ene-28-oic acid]	46.12 ± 0.31	9.03 ± 0.56	5.11	
C=C(C)C1CCC2(C(=O)OCCO)CCC3(C)C(CCC4C5(C)CCC(OC6OC(CO)C(OC7OC(C)C(O)C(O)C7O)C(O)C6OC6OC(C)C(O)C(O)C6O)C(C)(C)C5CCC43C)C12 (stereo not drawn) [BA-12, 2′-Hydroxylethyl-3β-O-[2,4-di-O-(α-l-rhamnopyranosyl)-β-d-glucopyranosyl]-lup-20 (29)-ene-28-oic acid]		> 20		activity against pSARS-CoV-2 (pSARS-CoV-2): total loss of potency
C=CCOC(=O)[C@]12CC[C@@H](C(=C)C)[C@@H]1[C@H]1CC[C@@H]3[C@@]4(C)CC[C@H](O[C@@H]5O[C@H](CO)[C@@H](O[C@@H]6O[C@@H](C)[C@H](O)[C@@H](O)[C@H]6O)[C@H](O)[C@H]5O[C@@H]5O[C@@H](C)[C@H](O)[C@@H](O)[C@H]5O)C(C)(C)[C@@H]4CC[C@@]3(C)[C@]1(C)CC2 [BA-14, Allyl-3β-O-[2,4-di-O-(α-l-rhamnopyranosyl)-β-d-glucopyranosyl]-lup-20 (29)-ene-28-oic acid]	84.62 ± 0.76	8.23 ± 0.55	10.28	fold decreased potency (pSARS-CoV-2): 2.6 fold
C=C(C)[C@@H]1CC[C@]2(C(=O)OCC3CC3)CC[C@]3(C)[C@H](CC[C@@H]4[C@@]5(C)CC[C@H](O[C@@H]6O[C@H](CO)[C@@H](O[C@@H]7O[C@@H](C)[C@H](O)[C@@H](O)[C@H]7O)[C@H](O)[C@H]6O[C@@H]6O[C@@H](C)[C@H](O)[C@@H](O)[C@H]6O)C(C)(C)[C@@H]5CC[C@]43C)[C@@H]12 [BA-15, Cyclopropylmethyl-3β-O-[2,4-di-O-(α-l-rhamnopyranosyl)-β-d-glucopyranosyl]-lup-20 (29)-ene-28-oic acid]	75.5 ± 1.63	15.9 ± 0.82	4.75	fold decreased potency (pSARS-CoV-2): 4.9 fold
O=c1c2ccccc2[se]n1-c1ccccc1 [Ebselen]				inhibition rate against 3CL (%) (SARS-CoV-2 3CL protease): 97.6% and 96.2%; inhibition at 100 µM (SARS-CoV-2 3CL protease): 98.5%

Source: paper PMC9729598 (Bioorganic Chemistry, 2022)
